Laboratory results reported in patent publication US20080306001A1, “TRANSCRIPTIONAL MODULATION OF EXTRACELLULAR MATRIX (ECM) OF DERMAL FIBROBLASTS” (priority 2007, published 2008).

How the values were obtained:
human dermal fibroblasts [1] = experiment: Effect of peptides on expression of growth factors, mRNA (RT-PCR); assay type: cell-based
Procedure: (§1) Human dermal fibroblasts were cultured in standard conditions (DMEM, 10% FCS, penicillin+streptomycin) and used in experiments after three passages in the laboratory. Cells were grown in 12 well plates, each treatment in triplicates. Cells were plated 16 hours prior treatments started. Peptides were added to the media, and media was changed every day during 7 day experiment. CPP concentration was 10 μM.
(§2) Total RNA from various human tissues was purified using RNAwiz (Ambion, USA) and subjected to subsequent DNase I treatment using the DNA-Free kit (Ambion). Total RNA from cancer cells was purified by using 4PCRmini kit (Ambion). First-strand cDNAs were synthesized with Superscript III reverse transcriptase (Invitrogen, USA) and 5 μg of total RNA using oligo d(T) priming in a final reaction volume of 50 μL
The cDNA was amplified by PCR using the 2,5U Hot-Firepol (Solis BioDyne, Estonia) and buffer Yellow (Naxo, Estonia). Reaction was performed in a 10 ul volume, using 0.5 ul cDNA as a template. Primer sets were designed to specifically amplify the nucleic acid sequence for the corresponding growth factor for this study: […]

human dermal fibroblasts [2] = experiment: Whole genome gene expression analysis (Affymetrix GeneChip Human Gene 1.0 ST Array); assay type: cell-based; settings: peptide 10 μM, 24 hour
Procedure: Human dermal fibroblasts were cultured in standard conditions (DMEM, 10% FCS, penicillin+streptomycin) and used in experiments after three passages in the laboratory. Cells were grown in 60 mm plates, each treatment in duplicates. Cells were plated 16 hours prior treatments started. Peptides (10 μM) were added to the media, and cells were collected for RNA isolation 24 hour later.
Total RNA was purified by using 4PCRmini kit (Ambion). First-strand cDNAs were synthesized with Superscript III reverse transcriptase (Invitrogen, USA) and 5 μg of total RNA using oligo d(T) priming in a final reaction volume of 50 μL and used to generate fluorescently labeled probes for whole genome gene expression analysis. Whole genome gene expression analysis was conducted using Affymetrix GeneChip™ Human Gene 1.0 ST Array.

dermal fibroblasts [3] = experiment: Effect of interfering peptides on expression of ECM components, protein level (Western blot); assay type: cell-based, human
Procedure: as §1, with “24” for “12”
(§3) Western blot using antibodies against fibronectin, thrombospondin, collagen I, collagen II, collagen 4, elastin, MMP1, MMP2, MMP7 and TIMP1 were performed using standard protocols. Cells were lysed in SDS loading buffer and separated on 5% SDS PAGE following transfer onto PVD membrane using semidry blotting. Antibodies were diluted 1:2000 and incubated for 2 hours followed by secondary antibody conjugated to alkaline phosphatase. Antibody binding was visualized using one step BCIP reagent (Pierce).
(§4) The cells were treated with peptides (1 μM) 24 hours for the mRNA analysis and 72 hours for protein analysis. All experiments were done in triplicates. Variation between replicates was less that 15%.

dermal fibroblasts [4] = experiment: Effect of interfering peptides on expression of ECM components, mRNA level (RT-PCR); assay type: cell-based, human; settings: peptide 1 μM, 24 hours
Procedure: as §1, with “24” for “12”
as §2
The cDNA was amplified by PCR using the 2,5U Hot-Firepol (Solis BioDyne, Estonia) and buffer Yellow (Naxo, Estonia). Reaction was performed in a 10 ul volume, using 0.5 ul cDNA as a template. Following primer sets were designed for this study:
as §4

human dermal fibroblasts [5] = experiment: Effect of peptides on expression of growth factors, protein (Western blot); assay type: cell-based; settings: peptide 10 μM
Procedure: as §1
as §3, with “Western blots” for “Western blot”, “against growth factors” for “against fibronectin, thrombospondin, collagen I, collagen II, collagen 4, elastin, MMP1, MMP2, MMP7 and TIMP1”

[6] = test system: human dermal fibroblast cell lines obtained from elderly patients; experiment: Effect of CPP mimicking peptides on synthesis of collagen I, collagen II and elastin in aged dermal fibroblasts (Western blot); assay type: cell-based; settings: peptide 10 μM
Procedure: The ability to interfere interaction of TAF4, BRG1 and N-CoR1 with the active transcriptional complex and stimulate synthesis of collagen I, collagen II and elastin was tested on 2 human dermal fibroblast cell lines obtained from elderly patients. It has been shown that: • TAF4 suppression using siRNA stimulates expression of numerous genes in embryonic fibroblasts. (Mengus G, Fadloun A, Kobi D, Thibault C, Perletti L, Michel I, Davidson I. 2005. TAF4 inactivation in embryonic fibroblasts activates TGFbeta signaling and autocrine growth. EMBO J. 2005 Aug. 3; 24(15):2753-67.) • Brg1 inhibits numerous genes during development. (Inayoshi Y, Kaneoka H, Machida Y, Terajima M, Dohda T, Miyake K, Iijima S. 2005. Repression of GR-mediated expression of the tryptophan oxygenase gene by the SWI/SNF complex during liver development. J Biochem (Tokyo). 2005 October; 138(4):457-65) • N-CoR1 plays a crucial role in the repressive activity of diverse transcription factors (J. Frasor, J. M. Danes, C. C. Funk and B. S. Katzenellenbogen. 2005. Estrogen down-regulation of the corepressor N-CoR: Mechanism and implications for estrogen derepression of N-CoR-regulated genes. PNAS. vol. 102 no. 37, 13153-13157.) • SMAD7 functions as a component of negative feedback regulation that controls timining and extent of TGFbeta signaling (Zhu X, Topouzis S, Liang L F, Stotish RL. Myostatin signaling through Smad2, Smad3 and Smad4 is regulated by the inhibitory Smad7 by a negative feedback mechanism. Cytokine. 2004 Jun. 21; 26(6):262-72.) • TAF10 is one of the TATA box-binding protein-associated factors (TAFs), which constitute the TFIID complex.
as §1, with “24” for “12”
as §3

[7] = fibroblast 1 (first block of Table 1)
[8] = second block of Table 1 (also fibroblast 1)

Sequence: RPKKRKVRRRGQLNSDHKSQLVEKVRLKIGCGIQL [SMAD7.1, CPP-mimicking peptide]
- CTGF mRNA, fold stimulation of expression compared to control (human dermal fibroblasts [1]; peptide 10 μM): 27 fold
- HGF mRNA, fold stimulation of expression compared to control (human dermal fibroblasts [1]; peptide 10 μM): 8 fold
- IGF-1 mRNA, fold stimulation of expression compared to control (human dermal fibroblasts [1]; peptide 10 μM): 4 fold
- VEGF mRNA, fold stimulation of expression compared to control (human dermal fibroblasts [1]; peptide 10 μM): 4 fold
- b-FGF mRNA, fold stimulation of expression compared to control (human dermal fibroblasts [1]; peptide 10 μM): 2 fold
- expression of CTGF (in words) (human dermal fibroblasts [1]; protein and mRNA): stimulate expression of CTGF significantly
- Number of genes with altered expression: expression stimulated 2-5 fold (human dermal fibroblasts [2]): 986
- Number of genes with altered expression: expression stimulated more than 5 fold (human dermal fibroblasts [2]): 198
- Number of genes with altered expression: expression suppressed 2-5 fold (human dermal fibroblasts [2]): 1011
- Number of genes with altered expression: expression suppressed more than 5 fold (human dermal fibroblasts [2]): 124
- expression of components of ECM (in words) (dermal fibroblasts [3]; dermal fibroblasts in vitro, protein and mRNA): stimulate expression of components of ECM
- CollagenI protein, fold stimulation (dermal fibroblasts [3]; peptide 1 μM, 72 hours): 2.9 fold
- Elastin protein, fold stimulation (dermal fibroblasts [3]; peptide 1 μM, 72 hours): 2.6 fold
- Fibronectin protein, fold stimulation (dermal fibroblasts [3]; peptide 1 μM, 72 hours): 3.1 fold
- MMP1 protein, fold stimulation (dermal fibroblasts [3]; peptide 1 μM, 72 hours): 1.9 fold
- MMP2 protein, fold stimulation (dermal fibroblasts [3]; peptide 1 μM, 72 hours): 1.1 fold
- MMP7 protein, fold stimulation (dermal fibroblasts [3]; peptide 1 μM, 72 hours): 1.9 fold
- TIMP protein, fold stimulation (dermal fibroblasts [3]; peptide 1 μM, 72 hours): 1.3 fold
- collagen IV protein, fold stimulation (dermal fibroblasts [3]; peptide 1 μM, 72 hours): 2.1 fold
- thrombospondin protein, fold stimulation (dermal fibroblasts [3]; peptide 1 μM, 72 hours): 3.2 fold
- MMP1 mRNA, fold stimulation (dermal fibroblasts [4]): 3.6 fold
- MMP7 mRNA, fold stimulation (dermal fibroblasts [4]): 2.9 fold
- MMp2 mRNA, fold stimulation (dermal fibroblasts [4]): 1.9 fold
- TIMP mRNA, fold stimulation (dermal fibroblasts [4]): 4.3 fold
- collagen IV mRNA, fold stimulation (dermal fibroblasts [4]): 5.4 fold
- collagenI mRNA, fold stimulation (dermal fibroblasts [4]): 7.9 fold
- elastin mRNA, fold stimulation (dermal fibroblasts [4]): 7.7 fold
- fibronectin mRNA, fold stimulation (dermal fibroblasts [4]): 8.7 fold
- thrombospondin mRNA, fold stimulation (dermal fibroblasts [4]): 6.9 fold
- CTGF protein, fold stimulation of expression compared to control (human dermal fibroblasts [5]): 15 fold
- HGF protein, fold stimulation of expression compared to control (human dermal fibroblasts [5]): 1.7 fold
- IGF-1 protein, fold stimulation of expression compared to control (human dermal fibroblasts [5]): 1 fold
- VEGF protein, fold stimulation of expression compared to control (human dermal fibroblasts [5]): 1.3 fold
- b-FGF protein, fold stimulation of expression compared to control (human dermal fibroblasts [5]): 1 fold

Sequence: RPKKRKVRRRLATNSELVGTLTRSCKDETFLL (synethetic amino acid sequence) [TAF4.1, CPP-mimicking peptide]
- collagen I, fold increase after 7 days [6, 7]: 5 fold
- collagen II, fold increase after 7 days [6, 7]: 3 fold
- elastin, fold increase after 7 days [6, 7]: 4 fold
- collagen I, fold increase after 7 days [6, 8]: 2 fold
- collagen II, fold increase after 7 days [6, 8]: 4 fold
- elastin, fold increase after 7 days [6, 8]: 2 fold

Sequence: RPKKRKVRRRMGLGKTIQTIALITYLMEHKRINGP [BRG1.1, CPP-mimicking peptide]
- collagen I, fold increase after 7 days [6, 7]: 7 fold
- collagen II, fold increase after 7 days [6, 7]: 2 fold
- elastin, fold increase after 7 days [6, 7]: 3 fold
- collagen I, fold increase after 7 days [6, 8]: 3 fold
- collagen II, fold increase after 7 days [6, 8]: 5 fold
- elastin, fold increase after 7 days [6, 8]: 6 fold
